# Measurements reported in patent US20040228872A1 (priority 2003, published 2004).
# How the values were obtained:
# foreleg flexor muscles = conditions: mouse, in vivo
# [1] = test system: orbicularis oculi muscles; conditions: guinea pig, in vivo
# [2] = in vivo; cited from earlier work
smiles,measurement,setting,value
"O=c1c(-c2ccc(O)cc2)coc2cc(O)cc(O)c12 [genistein, 5,7-dihydroxy-3-(4-hydroxyphenyl)-4H-1-benzopyran-4-one]",Grip strength recovery (percent of untreated baseline grip strength),foreleg flexor muscles,retarded
same,Delay of time to 50% recovery of blinks (blink amplitude),[1],approximately 10 days
same,Recovery of blinks after surgery,[1],full recovery within a week
same,Reduction of blink amplitude after surgery,[1],≤ 10%
same,Tolerability of dietary intake,[2],without obvious ill effects
